Measurements as given in patent US20210177824A1, “EXTENDED RELEASE FORMULATIONS FOR INTRA-ARTICULAR APPLICATIONS” (NOVARTIS AG, priority 2017, published 2021).

Experiments:
Format in all cases: physicochemical
[1] = Particle size and surface area of micronized Compound A micro-crystals
Excerpt: Compound A can be micronized using any methods known to those skilled in the art. Un-milled Compound A is subjected to a size reduction process to obtain particle size. The size reduction of Compound A can be performed using any known methods such as by jet-milling technology, and more particularly, by spiral jet-milling technology, fluidized bed opposed jet-milling technology or loop jet-milling technology.
In yet other embodiments, Compound A was micronized to form micro-crystals with maximal particle diameters characterized in Table 1.

[2] = Aqueous solubility of Compound A as a function of pH
Excerpt: (§1) Compound A can be formulated as immediate release formulations for intra-articular injection. However, due to a high fluid exchange between the synovial fluid and the blood stream, immediate release formulations have a short synovial residence half-life and require frequent injections.

pKa of Compound A = conditions: weakly basic
Excerpt: as §1

SMILES: O=C(Nc1ccc(Cl)c(Cl)c1)[C@@H]1[C@@H](c2ccncc2)[C@@H]2CC[C@H]1O2 [Compound A, N-(3,4-dichlorophenyl)-3-(pyridin-4-yl)-7-oxabicyclo[2.2.1] heptane-2-carboxamide]
- Particle size: D10 [1]: ≤1.4 μm
- Particle size: D50 [1]: ≤6.1 μm
- Particle size: D90 [1]: ≤29.7 μm
- Surface area [1]: 3 m^2/g
- pH dependence of solubility [2]: Solubility increases with decreasing pH
- Solubility in neutral pH and basic pH aqueous solutions ([2]; neutral and basic pH): poorly soluble
- pKa (pKa of Compound A): 5.2
